The pIC50 is −log10 of the IC50, conventionally taken in molar units. Lower therefore signals a large IC50.

Among the data in US8809325B2, “Benzyl-oxathiazine derivatives substituted with adamantane and noradamantane, medicaments containing said compounds and use thereof” (SANOFI, priority 2011, dated 2014) are IC50 values, retold here.

pIC50: −log10 of the molar value.

The assay has as its target human 11β-HSD1 microsome fraction (Homo sapiens, UniProt P28845). Description: Enzymatic 11beta-HSD1 test (SPA-based detection). Format: biochemical. The following applies: human 11β-HSD1 microsomes, [1,2-3H]-cortisone, NADPH, 37° C., 1 hour. As to the method:
Enzymatic 11beta-HSD1 Test:
To measure the activity of the compounds, an SPA-based detection method (Solly et al. 2005) was employed. First of all, 20 μl of the human 11β-HSD1 microsome fraction (0.2 μg of protein), prepared in 50 mM HEPES, 0.1% BSA (w/v), were applied to a plate with 384 wells. The test compounds (0.09 μl) were applied to the assay plate in 100% DMSO. The reaction was started by addition of 20 μl of [1,2-^3H]-cortisone (0.1 μCi/[…]) in assay buffer comprising 25 mM HEPES, 100 mM KCl, 5 mM NaCl, 2 mM MgCl2 and 0.25 mM NADPH. The plate was agitated at 37° C. for 1 hour. At the same time, a stop solution comprising 20 mg/ml SPA-PVT beads, 1.6 mg/ml monoclonal cortisol antibody and 0.01 mM SSR110887 (inhibitor from the Biovitrium patent) in 50 mM HEPES, 1 M NaCl and 1 M KCl was stirred at room temperature. To stop the reaction, 25 μl of the stop solution were added to each well. The plate was agitated gently at room temperature for 1 further hour and then centrifuged at 500 gav for 1 minute, in order that the SPA beads could settle out. The plate was then read in a Wallac-1450-Microbeta unit with a standard SPA program (counting time 1 min/well). The comparative compound was glycyrrhetinic acid.
Protein and radioactive substrate were dispensed with a Biomek FX unit (Beckman Coulter) for handling liquids. […]

human 11β-HSD1 microsome fraction, sequence (P28845 whole entry): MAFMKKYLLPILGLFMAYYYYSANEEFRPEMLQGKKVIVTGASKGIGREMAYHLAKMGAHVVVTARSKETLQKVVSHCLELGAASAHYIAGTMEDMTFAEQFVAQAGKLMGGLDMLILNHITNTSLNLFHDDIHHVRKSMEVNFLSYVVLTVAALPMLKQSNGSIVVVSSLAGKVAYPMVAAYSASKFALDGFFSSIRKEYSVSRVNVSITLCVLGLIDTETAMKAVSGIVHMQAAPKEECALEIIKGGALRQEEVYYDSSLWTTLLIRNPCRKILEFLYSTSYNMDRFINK

As for `CCN1CC(c2ccc(C[C@@H]3C(C)(C)OC(NC45C[C@@H]6C[C@@H](C[C@H]4C6)C5)=NS3(=O)=O)c(F)c2)C1` [Example 6, {(R)-5-[4-(1-Ethyl-azetidin-3-yl)-2-fluoro-benzyl]-6,6-dimethyl-4,4-dioxo-5,6-dihydro-4H-4lambda6-[1,4,3]oxathiazin-2-yl}-(2R,3aS,5S,6aS)-hexahydro-2,5-methano-pentalen-3a-yl-amine], the pIC50 is 8.52.
